For 20 compounds, EC50 results are on record in patent US11591341B2 (ALIGOS THERAPEUTICS, INC., priority 2019, dated 2023).

Bounds are passed on as bounds.

This test has as its system HBV. Nature of the test: HBV-DNA Antiviral Assay Using HepG2.117 Cells (intracellular HBV DNA by qPCR). The format is cell-based, hepatitis B virus (genotype D). To be noted: Hepatitis B virus, HepG2.117. Here is the method: The following assay procedure describes the HBV antiviral assay, using HepG2.117 cells, which carry a stably integrated genotype D HBV genome under the control of a Tet-off promoter, and intracellular HBV DNA quantification as endpoint. Cell viability is assessed in parallel by measuring the intracellular ATP content using ATPlite (Perkin Elmer).
On day 0, HepG2.117 cells (which are maintained in routine cell culture with doxycycline present in the medium at a final concentration of 1 μg/mL) were seeded in 96-well plates (white with clear bottom) at a density of 2.0×10^4 cells/well (0.1 mL/well) in medium without doxycycline to induce pgRNA transcription and subsequent formation of HBV particles. The cells were incubated at 37° C. and 5% CO2.
On day 1, medium was removed from each well, the test articles were diluted in culture medium without doxcycyline and 100 μL was added to cell culture wells (9 concentrations, 4-fold dilution). For each plate, 6 untreated (merely DMSO) wells were included. The final concentration of DMSO in the culture medium was 2%. Each plate was prepared in duplicate (one for HBV DNA extraction, one for ATPlite measurement). The cells were incubated at 37° C. and 5% CO2 for 3 days.
On day 4, cell viability was assessed using ATPlite and cell lysates were prepared for HBV DNA extraction and subsequent quantification by qPCR.
Medium was removed from each well and 100 μL of 0.33% NP-40 in H2O was added to each well. Plates were sealed, incubated at 4° C. for 5 mins, vortexed extensively and centrifuged briefly. Next, 35 μL of lysate was added to 65 μL QuickExtract DNA Extraction Solution (Epicentre) in a PCR plate for each well. PCR plate was incubated at 65° C. for 6 mins, 98° C. for 2 mins and finally cooled to 4° C. HBV DNA was then quantified by qPCR with HBV-specific primers and probes as specified in Table 3 using the Bio-Rad SSOAdvanced Universal Probes Supermix on a CFX96 machine (Bio-Rad). The PCR cycle program consisted of 95° C. for 3 mins, followed by 40 cycles at 95° C. for 10 sec and 60° C. for 30 sec.
A DNA standard was prepared by dilution of an IDT gBlock corresponding to the amplicon with concentrations ranging from 10^2 to 10^8 copies/input (i.e. per 4 μL) and used to generate a standard curve by plotting Cq values vs. HBV DNA standard concentration. The quantity of HBV DNA in each sample was determined by interpolating from the standard curve.
Cell viability was calculated as follows: % Cell viability=(luminescence value of test sample)/(average luminescence value of 2% DMSO control)×100%. HBV DNA inhibition was calculated as follows: 100−(HBV DNA copy number of test sample)/(average HBV DNA copy number of 2% DMSO control)×100%. No normalization to entecavir was required due to the excellent dynamic window of this assay. The CC50, EC50 and EC90 values were determined by dose-response curves fitted by GraphPad Prism using “log (agonist) vs. response—Variable slope”.
In general terms: Quantitative PCR measures a nucleic acid by following its amplification.

For the compound `CC(C)Oc1ccc(-n2c(C(=O)NCc3ccccc3)c3n(c2=O)CCN(C(=O)/C=C/c2ccc(Cl)c(Cl)c2)C3)cc1` [Example 242, N-benzyl-7-[(E)-3-(3,4-dichlorophenyl)prop-2-enoyl]-2-(4-isopropoxyphenyl)-3-oxo-6,8-dihydro-5H-imidazo[1,5-a]pyrazine-1-carboxamide], the EC50 (in general, the concentration giving half of the maximal effect) is > 5000 nM.

Take `C[C@@H](NC(=O)c1c2n(c(=O)n1-c1ccc(OC3CC3)cc1)CCN(C(=O)c1ccc(Br)c(Cl)c1)C2)c1ccc(OC(F)(F)F)cc1F` (stereo in doubt) [Example 290, 7-(4-bromo-3-chloro-benzoyl)-2-[4-(cyclopropoxy)phenyl]-3-oxo-N-[rac-(1R)-1-[2-fluoro-4-(trilfuoromethoxy)phenyl]ethyl]-6,8-dihydro-5H-imidazo[1,5-a]pyrazine-1-carboxamide]: the EC50 lay in the range of 500 to 5000 nM.

Take `COc1ccc(-n2c(-c3ccccn3)c3n(c2=O)CCN(C(=O)c2ccc(Br)c(Cl)c2)C3)cc1` [Example 275, 7-(4-bromo-3-chloro-benzoyl)-2-(4-methoxyphenyl)-1-(2-pyridyl)-6,8-dihydro-5H-imidazo[1,5-a]pyrazin-3-one]: the EC50 was > 5000 nM.

`O=C(NCc1ccccc1)c1c2n(c(=O)n1-c1ccc(N3CCO[C@H](C(F)(F)F)C3)cc1)CCN(C(=O)c1ccc(Br)c(Cl)c1)C2` (racemic) [Example 417, N-benzyl-7-(4-bromo-3-chloro-benozyl)-3-oxo-2-[4-[rac-(2S)-2-(trifluoromethyl)morpholin-4-yl]phenyl]-6,8-dihydro-5H-imidazo[1,5-a]pyrazine-1-carboxamide] had an EC50 of 100 to 500 nM.

Regarding `COc1ccc(CNC(=O)c2c3n(c(=O)n2-c2ccc(OCC(F)(F)F)cc2)CCN(C(=O)c2ccc(Br)c(Cl)c2)C3)c(OC)c1` [Example 229, 7-(4-bromo-3-chloro-benozyl)-N-[(2,4-dimethoxyphenyl)methyl]-3-oxo-2-[4-(2,2,2-trifluoroethoxy)phenyl]-6,8-dihydro-5H-imidazo[1,5-a]pyrazine-1-carboxamide], the EC50 was < 100 nM.

In the case of `CC(C)CN1CCCn2c(c3n(c2=O)CCN(C(=O)c2ccc(Br)c(Cl)c2)C3)C1=O` [Example 134, 4-(4-bromo-3-chloro-benzoyl)-13-isobutyl-4,7,9,13-tetrazatricyclo[7.5.0.0^2,7]tetradec-1-ene-8.14-dione], the EC50 was > 5000 nM.

`O=C(NCc1ccccc1)c1c2n(c(=O)n1-c1ccc(N3CCCC3=O)cc1)CCN(C(=O)c1ccc(Br)c(Cl)c1)C2` [Example 412, N-benzyl-7-(4-bromo-3-chloro-benzoyl)-3-oxo-2-[4-(2-oxopyrrolidin-1-yl)phenyl]-6,8-dihydro-5H-imidazo[1,5-a]pyrazine-1-carboxamide] registered an EC50 of 100 to 500 nM.

In turn, `O=C(c1ccc(Br)c(Cl)c1)N1CCn2c(c3n(c2=O)C[C@H](F)CN(Cc2ccccc2)C3=O)C1` (stereo in doubt) [Example 200, rac-(11R)-13-benzyl-4-(4-bromo-3-chloro-benzoyl)-11-fluoro-4,7,9,13-tetrazatricyclo[7.5.0.0^2,7]tetradec-1-ene-8,14-dione] came in with an EC50 of 100 to 500 nM.

In turn, `CC(C)Oc1ccc(-n2c(C(=O)N[C@H](C)c3ccccc3)c3n(c2=O)CCN(C(=O)c2ccc(Cl)c(Cl)c2)C3)cc1` (stereo in doubt) [Example 130, 7-(3,4-dichlorobenzoyl)-2-(4-isopropoxyphenyl)-3-oxo-N-[rac-(1R)-1-phenylethyl]-6,8-dihydro-5H-imidazo[1,5-a]pyrazine-1-carboxamide] came in with an EC50 of 100 to 500 nM.

For the compound `COc1ccc(-n2c(C(=O)NCc3ccc(CC(=O)O)cc3)c3n(c2=O)CCN(C(=O)c2ccc(Br)c(Cl)c2)C3)cc1` [Example 215, 2-[4-[[[7-(4-bromo-3-chloro-benzoyl)-2-(4-methoxyphenyl)-3-oxo-6,8-dihydro-5H-imidazo[1,5-a]pyrazine-1-carbonyl]amino]methyl]phenyl]acetic acid], the EC50 was > 5000 nM.

As to `C[C@@H]1Cn2c(c(C(=O)NCc3ccccc3-n3cncn3)n(-c3ccc(OC4CC4)cc3)c2=O)CN1C(=O)c1ccc(Br)c(Cl)c1` (stereo in doubt) [Example 447, rac-(6R)-7-(4-bromo-3-chloro-benzoyl)-2-[4-(cyclopropoxy)phenyl]-6-methyl-3-oxo-N-[[2-(1,2,4-triazol-1-yl)phenyl]methyl]-6,8-dihydro-5H-imidazo[1,5-a]pyrazine-1-carboxamide], the EC50 lay in the range of 100 to 500 nM.

For the compound `O=C(NCc1ccccc1)c1c2n(c(=O)n1-c1cccnc1)CCN(C(=O)c1ccc(Cl)c(Cl)c1)C2` [Example 49, N-benzyl-7-(3,4-dichlorobenzoyl)-3-oxo-2-(3-pyridyl)-6,8-dihydro-5H-imidazo[1,5-a]pyrazine-1-carboxamide], the EC50 was > 5000 nM.

`CC1(C)CN(c2ccc(-n3c(C(=O)NCc4ccccc4)c4n(c3=O)CCN(C(=O)c3ccc(Br)c(Cl)c3)C4)cc2)CCO1` [Example 410, N-benzyl-7-(4-bromo-3-chloro-benzoyl)-2-[4-(2,2-dimethylmorpholin-4-yl)phenyl]-3-oxo-6,8-dihydro-5H-imidazo[1,5-a]pyrazine-1-carboxamide] displayed an EC50 of 100 to 500 nM.

`C[C@@H](NC(=O)c1c2n(c(=O)n1C1CC1)CCN(C(=O)c1ccc(Br)c(Cl)c1)C2)c1ccccc1` (stereo in doubt) [Example 189, 7-(4-bromo-3-chloro-benzoyl)-2-cyclopropyl-3-oxo-N-[rac-(1R)-1-phenylethyl]-6,8-dihydro-5H-imidazo[1,5-a]pyrazine-1-carboxamide] had a half-maximal effective concentration (EC50) of 500 to 5000 nM.

Compound `C[C@@H](NC(=O)c1c2n(c(=O)n1-c1ccc(OCC(F)(F)F)cc1)CCN(C(=O)c1ccc(Br)c(Cl)c1)C2)c1ccc(OCC(N)=O)cc1F` (stereo in doubt) [Example 319, 7-(4-bromo-3-chloro-benzoyl)-3-oxo-N-[rac-(1R)-1-[4-(2-amino-2-oxo-ethoxy)-2-fluoro-phenyl]ethyl]-2-[4-(2,2,2-trifluoroethoxy)phenyl]-6,8-dihydro-5H-imidazo[1,5-a]pyrazine-1-carboxamide] gave an EC50 of 500 to 5000 nM.

On to `CS(=O)(=O)c1ccc(-n2c(C(=O)NCc3ccccc3)c3n(c2=O)CCN(C(=O)c2ccc(Br)c(Cl)c2)C3)cc1` [Example 45, N-benzyl-7-(4-bromo-3-chloro-benzoyl)-2-(4-methylsulfonylphenyl)-3-oxo-6,8-dihydro-5H-imidazo[1,5-a]pyrazine-1-carboxamide], for which the EC50 was in the range of 500 to 5000 nM.

`COc1ccc(-n2c(C(=O)NCc3cccc(C#N)c3)c3n(c2=O)CCN(C(=O)c2ccc(Br)c(Cl)c2)C3)cc1` [Example 62, 7-(4-bromo-3-chloro-benzoyl)-N-[(3-cyanophenyl)methyl]-2-(4-methoxyphenyl)-3-oxo-6,8-dihydro-5H-imidazo[1,5-a]pyrazine-1-carboxamide]: the EC50 lay within 500 to 5000 nM.

The compound `N#CCOc1ccc(-n2c(C(=O)NCc3ccccc3)c3n(c2=O)CCN(C(=O)c2ccc(Br)c(Cl)c2)C3)cc1` [Example 265, N-benzyl-7-(4-bromo-3-chloro-benozyl)-2-[4-(cyanomethoxy)phenyl]-3-oxo-6,8-dihydro-5H-imidazo[1,5-a]pyrazine-1-carboxamide] gave an EC50 of 500 to 5000 nM.

`COc1ccc(-n2c(C(=O)NCc3ccc(OC(C)C)cc3)c3n(c2=O)CCN(C(=O)c2ccc(Br)c(Cl)c2)C3)cc1` [Example 156, 7-(4-bromo-3-chloro-benzoyl)-N-[(4-isopropoxyphenyl)methyl]-2-(4-methoxyphenyl)-3-oxo-6,8-dihydro-5H-imidazo[1,5-a]pyrazine-1-carboxamide] came in with an EC50 of 100 to 500 nM.

`N#Cc1ccc(CNC(=O)c2c3n(c(=O)n2-c2ccc(OCC(F)(F)F)cc2)CCN(C(=O)c2ccc(Br)c(Cl)c2)C3)c(F)c1` [Example 287, 7-(4-bromo-3-chloro-benzoyl)-N-[(4-cyano-2-fluoro-phenyl)methyl]-3-oxo-2-[4-(2,2,2-trifluoroethoxy)phenyl]-6,8-dihydro-5H-imidazo[1,5-a]pyrazine-1-carboxamide]: the EC50 lay within 500 to 5000 nM.
